These are literature values, as cited in patent publication US20140057918A1, “Methods of Use for Monomethyl Fumarate and Prodrugs Thereof” (XenoPort, Inc., priority 2012, published 2014).

The test system of one series is herpes simplex virus. The settings on record: animals infected with the herpes simplex virus.

Counter-ions that a name gives are not always drawn.

With `COC(=O)/C=C/C(=O)OC` [Dimethyl fumarate, Dimethyl (E)-butenedioate], the aqueous solubility result is recorded as “poor”. Also, the herpes stromal keratitis result with herpes simplex virus is given as “improved”.
